Source: PubChem BioAssay (NCI)
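Five concentrations, 48 hours, 96-well plates. TGI marks complete inhibition of growth.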

Assays:
Test in all cases: growth of human tumour cells (NCI), 48 h
HOP-92 NSCLC = system: HOP-92 NSCLC
PC-3 prostate = system: PC-3 prostate
TK-10 renal = system: TK-10 renal
BT-549 breast = system: BT-549 breast
HCT-15 colon = system: HCT-15 colon
SNB-75 CNS = system: SNB-75 CNS
IGROV1 ovarian = system: IGROV1 ovarian
MOLT-4 leukemia = system: MOLT-4 leukemia
SR leukemia = system: SR leukemia
SK-MEL-5 melanoma = system: SK-MEL-5 melanoma
KM12 colon = system: KM12 colon
MALME-3M melanoma = system: MALME-3M melanoma
RXF 393 renal = system: RXF 393 renal
OVCAR-4 ovarian = system: OVCAR-4 ovarian
HS 578T breast = system: HS 578T breast
SW-620 colon = system: SW-620 colon
SK-MEL-28 melanoma = system: SK-MEL-28 melanoma
HL-60(TB) leukemia = system: HL-60(TB) leukemia
SF-295 CNS = system: SF-295 CNS
NCI-H460 lung = system: NCI-H460 lung
EKVX NSCLC = system: EKVX NSCLC
MCF7 breast = system: MCF7 breast
LOX IMVI melanoma = system: LOX IMVI melanoma
NCI-H522 lung = system: NCI-H522 lung
UO-31 renal = system: UO-31 renal
OVCAR-5 ovarian = system: OVCAR-5 ovarian
UACC-62 melanoma = system: UACC-62 melanoma
OVCAR-3 ovarian = system: OVCAR-3 ovarian
U251 CNS = system: U251 CNS
HT29 colon = system: HT29 colon
COLO 205 colon = system: COLO 205 colon
SK-OV-3 ovarian = system: SK-OV-3 ovarian
MDA-MB-435 = system: MDA-MB-435
SNB-19 CNS = system: SNB-19 CNS
M14 melanoma = system: M14 melanoma
NCI-H23 lung = system: NCI-H23 lung
DU-145 prostate = system: DU-145 prostate
NCI-H226 lung = system: NCI-H226 lung
NCI/ADR-RES ovarian = system: NCI/ADR-RES ovarian
HOP-62 NSCLC = system: HOP-62 NSCLC
ACHN renal = system: ACHN renal
T-47D breast = system: T-47D breast
OVCAR-8 ovarian = system: OVCAR-8 ovarian
UACC-257 melanoma = system: UACC-257 melanoma
CAKI-1 renal = system: CAKI-1 renal
SK-MEL-2 melanoma = system: SK-MEL-2 melanoma
A498 renal = system: A498 renal
HCT-116 colon = system: HCT-116 colon
SF-268 CNS = system: SF-268 CNS
786-0 renal = system: 786-0 renal
MDA-N = system: MDA-N
SF-539 CNS = system: SF-539 CNS
MDA-MB-231 breast = system: MDA-MB-231 breast
K-562 leukemia = system: K-562 leukemia
A549 NSCLC = system: A549 NSCLC
SN12C renal = system: SN12C renal

CCn1c2ccccc2c2ccc(C3C4C(=O)N(c5cccc6ccccc56)C(=O)C4ON3C(C(N)=O)c3ccccc3)cc21 (stereo unspecified)
TGI (HOP-92 NSCLC): > 25 µM
TGI (PC-3 prostate): > 25 µM
TGI (TK-10 renal): 21.8 µM
TGI (BT-549 breast): > 25 µM
TGI (HCT-15 colon): > 25 µM
TGI (SNB-75 CNS): > 25 µM
TGI (IGROV1 ovarian): > 25 µM
TGI (MOLT-4 leukemia): > 25 µM
TGI (SR leukemia): > 25 µM
TGI (SK-MEL-5 melanoma): > 25 µM
TGI (KM12 colon): > 25 µM
TGI (MALME-3M melanoma): > 25 µM
TGI (RXF 393 renal): > 25 µM
TGI (OVCAR-4 ovarian): > 25 µM
TGI (HS 578T breast): > 25 µM
TGI (SW-620 colon): > 25 µM
TGI (SK-MEL-28 melanoma): > 25 µM
TGI (HL-60(TB) leukemia): > 25 µM
TGI (SF-295 CNS): > 25 µM
TGI (NCI-H460 lung): > 25 µM
TGI (EKVX NSCLC): > 25 µM
TGI (MCF7 breast): > 25 µM
TGI (LOX IMVI melanoma): > 25 µM
TGI (NCI-H522 lung): > 25 µM
TGI (UO-31 renal): > 25 µM
TGI (OVCAR-5 ovarian): > 25 µM
TGI (UACC-62 melanoma): > 25 µM
TGI (OVCAR-3 ovarian): > 25 µM
TGI (U251 CNS): > 25 µM
TGI (HT29 colon): > 25 µM
TGI (COLO 205 colon): > 25 µM
TGI (SK-OV-3 ovarian): > 25 µM
TGI (MDA-MB-435): > 25 µM
TGI (SNB-19 CNS): > 25 µM
TGI (M14 melanoma): > 25 µM
TGI (NCI-H23 lung): > 25 µM
TGI (DU-145 prostate): > 25 µM
TGI (NCI-H226 lung): 8.05 µM
TGI (NCI/ADR-RES ovarian): > 25 µM
TGI (HOP-62 NSCLC): > 25 µM
TGI (ACHN renal): > 25 µM
TGI (T-47D breast): > 25 µM
TGI (OVCAR-8 ovarian): > 25 µM
TGI (UACC-257 melanoma): > 25 µM
TGI (CAKI-1 renal): 11.3 µM
TGI (SK-MEL-2 melanoma): > 25 µM
TGI (A498 renal): 6.96 µM
TGI (HCT-116 colon): > 25 µM
TGI (SF-268 CNS): > 25 µM
TGI (786-0 renal): > 25 µM
TGI (MDA-N): > 25 µM
TGI (SF-539 CNS): > 25 µM
TGI (MDA-MB-231 breast): > 25 µM
TGI (K-562 leukemia): > 25 µM
TGI (A549 NSCLC): > 25 µM
TGI (SN12C renal): > 25 µM
